In patent publication US5684151A, “1-arylsulphonyl, arylcarbonyl and 1-arylphosphonyl-3-phenyl-1,4,5,6-tetrahydropyridazines” (priority 1995, dated 1997):
Where two headings read alike, the source gives them in different places.

Legend:
[1] = test system: mouse (MC3T3-E1) and human (TE-85) osteoblast-line cells; type: cell-based
Outline: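 Proliferation was read as ^3H-thymidine (0.4 μCi) uptake during a 4 h pulse, which started 20 h after compound addition. Before dosing, cells sat 24 h in 0.1% FBS. Values are % times control (100%).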

[2] = biological target: T1, progestin receptor from rabbit uterus (Oryctolagus cuniculus, UniProt P06186); test: Progestin receptor binding (3H-R5020 displacement); conditions: rabbit uterine cytosol, 4° C., 18 h, read-out: IC50: Binding affinity for the progestin receptor from rabbit uterus
T1 construct: Cytosolic progestin receptor were obtained by mixing rabbit uterine tissue with a Tris buffer; from tissue; host or cells: rabbit uterus cytosol
Outline: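 Displacement of the radioligand 3H-R5020 was measured in cytosol from homogenized rabbit uterus (pH 7.4 Tris/EDTA/DTT/molybdate buffer), with compounds at 5% final DMSO and about 18 h at 4 °C. Charcoal removed free ligand, scintillation counting quantified bound ligand, and IC50 was the concentration displacing half.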

T1 sequence (P06186 whole entry): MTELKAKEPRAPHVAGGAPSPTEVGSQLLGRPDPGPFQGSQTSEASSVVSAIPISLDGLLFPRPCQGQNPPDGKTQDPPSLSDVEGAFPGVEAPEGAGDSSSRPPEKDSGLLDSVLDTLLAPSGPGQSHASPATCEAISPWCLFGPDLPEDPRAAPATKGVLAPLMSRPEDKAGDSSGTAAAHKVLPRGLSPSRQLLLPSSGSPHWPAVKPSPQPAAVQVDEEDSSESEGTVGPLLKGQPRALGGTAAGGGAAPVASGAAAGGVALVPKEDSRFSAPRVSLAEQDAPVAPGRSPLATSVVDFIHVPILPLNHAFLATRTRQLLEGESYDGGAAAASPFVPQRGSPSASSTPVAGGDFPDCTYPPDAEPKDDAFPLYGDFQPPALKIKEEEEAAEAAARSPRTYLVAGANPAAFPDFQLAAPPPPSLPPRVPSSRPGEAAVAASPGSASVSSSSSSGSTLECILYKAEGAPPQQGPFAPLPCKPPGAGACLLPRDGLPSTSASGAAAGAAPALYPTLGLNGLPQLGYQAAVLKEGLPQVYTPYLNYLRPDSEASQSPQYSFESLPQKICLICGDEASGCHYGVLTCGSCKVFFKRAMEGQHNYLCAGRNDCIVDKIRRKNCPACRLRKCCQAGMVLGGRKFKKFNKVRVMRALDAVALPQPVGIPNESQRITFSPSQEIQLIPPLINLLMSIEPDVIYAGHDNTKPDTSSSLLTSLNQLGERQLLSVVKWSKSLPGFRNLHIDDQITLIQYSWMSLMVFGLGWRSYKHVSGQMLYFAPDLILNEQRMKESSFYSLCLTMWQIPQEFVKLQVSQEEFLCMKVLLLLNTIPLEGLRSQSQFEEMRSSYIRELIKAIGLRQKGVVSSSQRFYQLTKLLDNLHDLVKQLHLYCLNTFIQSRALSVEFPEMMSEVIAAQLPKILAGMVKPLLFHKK

Structure (SMILES): O=C(c1ccc(Cl)cc1)N1CCCC(c2ccc(F)cc2)=N1 [Compound 204]
- Osteoblast Cell Proliferation, 3H-thymidine incorporation vs control (100%) ([1]; 10^-6): 79%
- Osteoblast Cell Proliferation, 3H-thymidine incorporation vs control (100%) ([1]; 10^-7): 109%
- Osteoblast Cell Proliferation, 3H-thymidine incorporation vs control (100%) ([1]; 10^-8): 105%
- Osteoblast Cell Proliferation, 3H-thymidine incorporation vs control (100%) ([1]; 10^-9): 101%
- Osteoblast Cell Proliferation, 3H-thymidine incorporation vs control (100%) ([1]; 10^-10): 109%
- IC50 [2]: 3000 nM

Structure (SMILES): CC(C)(C)c1ccc(C(=O)N2CCCC(c3ccc(Cl)cc3)=N2)cc1 [Compound 195]
- Osteoblast Cell Proliferation, 3H-thymidine incorporation vs control (100%) ([1]; 10^-6): 103%
- Osteoblast Cell Proliferation, 3H-thymidine incorporation vs control (100%) ([1]; 10^-7): 114%
- Osteoblast Cell Proliferation, 3H-thymidine incorporation vs control (100%) ([1]; 10^-8): 125%
- Osteoblast Cell Proliferation, 3H-thymidine incorporation vs control (100%) ([1]; 10^-9): 127%
- Osteoblast Cell Proliferation, 3H-thymidine incorporation vs control (100%) ([1]; 10^-10): 136%
- IC50 [2]: 100000 nM

Structure (SMILES): O=S(=O)(c1ccc2ccccc2c1)N1CCCC(c2ccc(-c3ccccc3)cc2)=N1 [Compound 85]
- Osteoblast Cell Proliferation, 3H-thymidine incorporation vs control (100%) ([1]; 10^-6): 99%
- Osteoblast Cell Proliferation, 3H-thymidine incorporation vs control (100%) ([1]; 10^-7): 80%
- Osteoblast Cell Proliferation, 3H-thymidine incorporation vs control (100%) ([1]; 10^-8): 76%
- Osteoblast Cell Proliferation, 3H-thymidine incorporation vs control (100%) ([1]; 10^-9): 54%
- Osteoblast Cell Proliferation, 3H-thymidine incorporation vs control (100%) ([1]; 10^-10): 48%
- IC50 [2]: 1000 nM

Structure (SMILES): O=S(=O)(c1ccc(Cl)cc1)N1CCCC(c2ccc(-c3ccccc3)cc2)=N1 [Compound 84]
- Osteoblast Cell Proliferation, 3H-thymidine incorporation vs control (100%) ([1]; 10^-6): 108%
- Osteoblast Cell Proliferation, 3H-thymidine incorporation vs control (100%) ([1]; 10^-7): 119%
- Osteoblast Cell Proliferation, 3H-thymidine incorporation vs control (100%) ([1]; 10^-8): 130%
- Osteoblast Cell Proliferation, 3H-thymidine incorporation vs control (100%) ([1]; 10^-9): 127%
- Osteoblast Cell Proliferation, 3H-thymidine incorporation vs control (100%) ([1]; 10^-10): 122%
- IC50 [2]: 1000 nM

Structure (SMILES): CC1CC(c2ccccc2)=NN(S(=O)(=O)c2cc(Cl)ccc2Cl)C1 (centres unmarked) [Compound 144]
- Osteoblast Cell Proliferation, 3H-thymidine incorporation vs control (100%) ([1]; 10^-7): 112%
- Osteoblast Cell Proliferation, 3H-thymidine incorporation vs control (100%) ([1]; 10^-8): 122%
- Osteoblast Cell Proliferation, 3H-thymidine incorporation vs control (100%) ([1]; 10^-9): 117%
- Osteoblast Cell Proliferation, 3H-thymidine incorporation vs control (100%) ([1]; 10^-10): 108%
- IC50 [2]: 71.7 nM

Structure (SMILES): O=C(c1ccc([N+](=O)[O-])cc1)N1CCCC(c2ccc(F)cc2)=N1 [Compound 203]
- Osteoblast Cell Proliferation, 3H-thymidine incorporation vs control (100%) ([1]; 10^-6): 73%
- Osteoblast Cell Proliferation, 3H-thymidine incorporation vs control (100%) ([1]; 10^-7): 85%
- Osteoblast Cell Proliferation, 3H-thymidine incorporation vs control (100%) ([1]; 10^-8): 102%
- Osteoblast Cell Proliferation, 3H-thymidine incorporation vs control (100%) ([1]; 10^-9): 98%
- Osteoblast Cell Proliferation, 3H-thymidine incorporation vs control (100%) ([1]; 10^-10): 106%
- IC50 [2]: 978 nM

Structure (SMILES): COP(=O)(c1ccccc1)N1CCCC(c2ccc(Cl)c(C(F)(F)F)c2)=N1 (centres unmarked) [Compound 261]
- Osteoblast Cell Proliferation, 3H-thymidine incorporation vs control (100%) ([1]; 10^-6): 98%
- Osteoblast Cell Proliferation, 3H-thymidine incorporation vs control (100%) ([1]; 10^-7): 105%
- Osteoblast Cell Proliferation, 3H-thymidine incorporation vs control (100%) ([1]; 10^-8): 95%
- Osteoblast Cell Proliferation, 3H-thymidine incorporation vs control (100%) ([1]; 10^-9): 100%
- Osteoblast Cell Proliferation, 3H-thymidine incorporation vs control (100%) ([1]; 10^-10): 111%
- IC50 [2]: 131 nM

Structure (SMILES): COc1ccc(C2=NN(C(=O)c3ccc(Br)cc3)CCC2)cc1 [Compound 190]
- Osteoblast Cell Proliferation, 3H-thymidine incorporation vs control (100%) ([1]; 10^-6): 121%
- Osteoblast Cell Proliferation, 3H-thymidine incorporation vs control (100%) ([1]; 10^-7): 135%
- Osteoblast Cell Proliferation, 3H-thymidine incorporation vs control (100%) ([1]; 10^-8): 130%
- Osteoblast Cell Proliferation, 3H-thymidine incorporation vs control (100%) ([1]; 10^-9): 139%
- Osteoblast Cell Proliferation, 3H-thymidine incorporation vs control (100%) ([1]; 10^-10): 158%
- IC50 [2]: 100000 nM
